Test results from article PMC12165416, “HarmGR13 mediates myo-inositol taste perception in Helicoverpa armigera larvae” (PLOS Genetics, 2025).

What was measured:
Assay in all cases: two-electrode voltage clamp, Xenopus oocytes, inward current
Assay type in all cases: cell-based
[1] = biological target: T1, HarmGR13 (Helicoverpa armigera, UniProt Z9NT97MFL8, D92A); conditions: Ringer's solution pH 7.6, -80 mV; 100 mM inositol
T1 construct: full-length, 436 aa; cDNA from larval maxillary galea; pCS2+ cRNA injected into Xenopus laevis oocytes; expressed alone
T1 sequence (Z9NT97MFL8 1-436 D92A): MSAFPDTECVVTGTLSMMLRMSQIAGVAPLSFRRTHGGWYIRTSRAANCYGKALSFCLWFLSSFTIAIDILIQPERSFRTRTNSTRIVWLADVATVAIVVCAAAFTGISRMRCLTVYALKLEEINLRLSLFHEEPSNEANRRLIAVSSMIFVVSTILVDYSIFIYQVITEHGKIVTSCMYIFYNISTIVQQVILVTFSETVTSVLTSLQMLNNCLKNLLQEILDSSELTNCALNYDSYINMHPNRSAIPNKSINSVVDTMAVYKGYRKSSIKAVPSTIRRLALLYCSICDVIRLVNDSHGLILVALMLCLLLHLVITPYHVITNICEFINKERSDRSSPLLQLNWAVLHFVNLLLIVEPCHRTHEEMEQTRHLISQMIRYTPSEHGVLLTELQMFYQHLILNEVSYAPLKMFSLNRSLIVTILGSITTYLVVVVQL

[2] = biological target: T2, HarmGR13 (Helicoverpa armigera, UniProt Z9NT97MFL8); conditions: Ringer's solution pH 7.6, -80 mV; agonist; dose-response curve in Fig 5B, EC50 not given
T2 construct: full-length, 436 aa; cDNA from larval maxillary galea; pCS2+ cRNA injected into Xenopus laevis oocytes; expressed alone
T2 sequence (Z9NT97MFL8 1-436): T1 sequence (Z9NT97MFL8 1-436 D92A)

[3] = biological target: T3, HarmGR13 (Helicoverpa armigera, UniProt Z9NT97MFL8, D159A); conditions: Ringer's solution pH 7.6, -80 mV; 100 mM inositol
T3 construct: full-length, 436 aa; cDNA from larval maxillary galea; pCS2+ cRNA injected into Xenopus laevis oocytes; expressed alone
T3 sequence (Z9NT97MFL8 1-436 D159A): T1 sequence (Z9NT97MFL8 1-436 D92A)

[4] = biological target: T3, HarmGR13; conditions: Ringer's solution pH 7.6, -80 mV; 500 mM ribose
[5] = biological target: T1, HarmGR13; conditions: Ringer's solution pH 7.6, -80 mV; 500 mM ribose

Compound	inward current at 100 mM [1]	threshold concentration [2]	inward current at 100 mM [3]	inward current at 500 mM [4]	inward current at 500 mM [5]
O[C@H]1[C@H](O)[C@@H](O)[C@H](O)[C@@H](O)[C@H]1O [myo-inositol]	each of three mutated HarmGR13 did not show any inward currents	1 mM	each of three mutated HarmGR13 did not show any inward currents		
OC1OC[C@@H](O)[C@@H](O)[C@H]1O (stereo partly drawn) [ribose]		10 mM		each of three mutated HarmGR13 did not show any inward currents	each of three mutated HarmGR13 did not show any inward currents
